Key:
[1] = biological target: α-glucosidase from S. cerevisiae (GH13); test: Ki determination, S. cerevisiae α-glucosidase; format: biochemical; details: 37 °C, pH 7.0, substrate pNP α-Glc; read-out: Ki S. cer. (α-Glc) (GH13)
Description: Kinetic studies were performed at 37 °C in an appropriate buffer (specific conditions depicted below). In a typical assay, the enzyme was incubated with different inhibitor concentrations for up to 5 min before initiating the reaction by the addition of substrate. The initial reaction rate was measured by monitoring the increase in absorbance at 400 nm for up to ten minutes using a Cary4000 (Varian, Palo Alto, CA, USA). Ki determinations were performed using at least two different substrate concentrations. For each inhibitor, a range of four to six inhibitor concentrations bracketing the ultimately determined Ki value was used for each substrate concentration. Dixon plots (1/v vs. [I]) were constructed to validate the use of competitive inhibition model. The data were then fit using non-linear regression analysis with Grafit 7.0 [Erithacus Software, UK]. […] S. cerevisiae α-Glucosidase: 50 mM sodium phosphate buffer (pH 7.0).

[2] = biological target: T1, recombinant human lysosomal β-glucocerebrosidase (GCase, GH30) (Homo sapiens, UniProt P04062); test: Ki determination, GCase (β-glucocerebrosidase); format: biochemical; details: 37 °C, pH 7, substrate 2,4-DNP β-Glc
T1 sequence (P04062 40-536): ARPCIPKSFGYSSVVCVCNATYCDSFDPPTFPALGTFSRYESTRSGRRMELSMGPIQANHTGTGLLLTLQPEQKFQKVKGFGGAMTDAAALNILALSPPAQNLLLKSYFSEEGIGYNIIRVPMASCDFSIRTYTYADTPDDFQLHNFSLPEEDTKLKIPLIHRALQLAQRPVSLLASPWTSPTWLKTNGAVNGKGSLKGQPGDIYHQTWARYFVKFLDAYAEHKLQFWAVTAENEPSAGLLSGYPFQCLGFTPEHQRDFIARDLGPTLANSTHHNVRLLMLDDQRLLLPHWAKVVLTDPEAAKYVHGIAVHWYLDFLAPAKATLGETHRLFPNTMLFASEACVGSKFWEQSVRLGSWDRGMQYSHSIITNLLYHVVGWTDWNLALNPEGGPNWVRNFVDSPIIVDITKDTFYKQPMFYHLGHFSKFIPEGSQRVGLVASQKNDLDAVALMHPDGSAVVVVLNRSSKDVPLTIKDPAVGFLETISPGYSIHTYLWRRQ
Description: Kinetic studies were performed at 37 °C in an appropriate buffer (specific conditions depicted below). In a typical assay, the enzyme was incubated with different inhibitor concentrations for up to 5 min before initiating the reaction by the addition of substrate. The initial reaction rate was measured by monitoring the increase in absorbance at 400 nm for up to ten minutes using a Cary4000 (Varian, Palo Alto, CA, USA). Ki determinations were performed using at least two different substrate concentrations. For each inhibitor, a range of four to six inhibitor concentrations bracketing the ultimately determined Ki value was used for each substrate concentration. Dixon plots (1/v vs. [I]) were constructed to validate the use of competitive inhibition model. The data were then fit using non-linear regression analysis with Grafit 7.0 [Erithacus Software, UK].
n.i. stands for no inhibition or weak inhibition with an estimated Ki value higher than 1 mM.
GCase (β-glucocerebrosidase): 20 mM sodium citrate, 50 mM sodium phosphate, 1.0 mM tetrasodium EDTA, 0.25% v/v Triton X-100® and 0.25% w/v taurocholic acid buffer (pH 7). Substrate: 2,4-DNP β-Glc, Km = 2.7 mM.

[3] = biological target: T2, β-glucosidase/β-galactosidase from Agrobacterium sp. (Abg, GH1) (Agrobacterium sp., UniProt P12614); details: read-out: Ki Abg (β-Glc/Gal) (GH1); cited from earlier work
T2 sequence (P12614 1-459): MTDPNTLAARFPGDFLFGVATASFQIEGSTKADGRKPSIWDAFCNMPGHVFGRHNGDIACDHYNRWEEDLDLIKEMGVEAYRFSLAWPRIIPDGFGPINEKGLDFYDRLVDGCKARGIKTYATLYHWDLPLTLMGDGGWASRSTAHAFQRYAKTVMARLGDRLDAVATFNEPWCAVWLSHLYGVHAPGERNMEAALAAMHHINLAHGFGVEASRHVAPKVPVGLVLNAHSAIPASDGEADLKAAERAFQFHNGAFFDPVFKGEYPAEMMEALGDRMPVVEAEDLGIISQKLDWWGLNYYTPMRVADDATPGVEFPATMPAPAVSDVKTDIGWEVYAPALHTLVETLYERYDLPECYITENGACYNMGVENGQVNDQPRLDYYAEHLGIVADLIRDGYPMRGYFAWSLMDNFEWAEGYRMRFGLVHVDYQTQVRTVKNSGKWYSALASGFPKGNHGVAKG

[4] = biological target: lac Z β-galactosidase from E. coli (GH2) (Escherichia coli, UniProt P00722); details: read-out: Ki E. coli (β-Gal) (GH2); cited from earlier work
Chain of lac Z β-galactosidase from E. coli (GH2) (P00722 2-1024): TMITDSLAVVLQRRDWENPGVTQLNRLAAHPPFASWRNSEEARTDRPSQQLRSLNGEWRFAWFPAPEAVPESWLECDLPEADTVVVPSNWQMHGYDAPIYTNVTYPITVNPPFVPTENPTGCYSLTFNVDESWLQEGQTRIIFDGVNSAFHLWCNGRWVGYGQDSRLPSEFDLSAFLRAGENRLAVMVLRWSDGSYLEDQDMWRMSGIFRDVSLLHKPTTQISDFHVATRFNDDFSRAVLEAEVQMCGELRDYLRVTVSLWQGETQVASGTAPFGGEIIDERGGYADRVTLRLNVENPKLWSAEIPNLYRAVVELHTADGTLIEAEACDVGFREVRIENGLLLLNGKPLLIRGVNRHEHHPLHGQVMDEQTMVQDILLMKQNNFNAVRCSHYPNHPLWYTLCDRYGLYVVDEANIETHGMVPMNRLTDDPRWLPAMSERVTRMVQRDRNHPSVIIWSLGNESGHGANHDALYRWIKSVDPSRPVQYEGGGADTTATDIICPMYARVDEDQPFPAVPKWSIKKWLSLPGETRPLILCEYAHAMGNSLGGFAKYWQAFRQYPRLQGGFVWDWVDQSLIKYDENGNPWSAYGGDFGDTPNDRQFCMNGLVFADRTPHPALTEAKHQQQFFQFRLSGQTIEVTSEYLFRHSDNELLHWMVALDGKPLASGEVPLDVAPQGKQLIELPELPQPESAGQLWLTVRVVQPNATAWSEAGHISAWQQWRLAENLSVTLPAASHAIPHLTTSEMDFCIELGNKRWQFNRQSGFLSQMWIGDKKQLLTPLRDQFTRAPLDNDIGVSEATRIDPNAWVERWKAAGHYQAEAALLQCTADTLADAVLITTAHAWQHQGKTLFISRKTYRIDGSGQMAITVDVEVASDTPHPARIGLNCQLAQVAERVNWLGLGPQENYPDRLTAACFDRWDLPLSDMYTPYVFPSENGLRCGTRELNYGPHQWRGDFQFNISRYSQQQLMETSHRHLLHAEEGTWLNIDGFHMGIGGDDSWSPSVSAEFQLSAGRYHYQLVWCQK

[5] = biological target: T3, Fabrazyme = commercial recombinant lysosomal α-galactosidase (GH27) (Homo sapiens, UniProt P06280); details: read-out: Ki Fabrazyme (α-Gal) (GH27); cited from earlier work
T3 construct: purchased
T3 sequence (P06280 32-429): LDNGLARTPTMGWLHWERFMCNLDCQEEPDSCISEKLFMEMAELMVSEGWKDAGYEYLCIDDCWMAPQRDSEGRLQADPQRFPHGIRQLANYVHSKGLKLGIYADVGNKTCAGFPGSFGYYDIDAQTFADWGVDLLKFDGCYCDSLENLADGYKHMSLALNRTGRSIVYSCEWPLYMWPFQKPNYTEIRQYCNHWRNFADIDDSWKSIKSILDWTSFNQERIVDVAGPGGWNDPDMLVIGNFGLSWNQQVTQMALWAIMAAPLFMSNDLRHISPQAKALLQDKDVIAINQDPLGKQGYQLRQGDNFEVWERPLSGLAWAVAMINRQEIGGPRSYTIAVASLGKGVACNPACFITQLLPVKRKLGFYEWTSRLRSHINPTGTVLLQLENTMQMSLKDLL

In the case of `CCCCCCCCNC1C=C(CO)C(O)C(O)C1O` (stereo not drawn) [Compound 1, N-octyl-epi-valienamine], the Ki [1] is reported as > 1 mM and the Ki [2] is reported as 83 µM.
In the case of `CN(C)c1cccc2c(S(=O)(=O)NCCCCCC[C@@H]3NC[C@@H](O)[C@@H](O)[C@H]3CO)cccc12` [Compound 14], the Ki [3] is listed as 17.5 nM, the Ki [4] is listed as 2.1 nM and the Ki [5] is listed as > 1000 µM.
With `CCCCCCCCN[C@H]1[C@H](O)[C@@H](O)[C@@H](O)[C@H]1CO` [Compound 16] the Ki [1] was > 1 mM and the Ki [2] was 0.0639 µM.
For `CN(C)c1cccc2c(S(=O)(=O)NCCCCCCN[C@H]3[C@H](O)[C@@H](O)[C@@H](O)[C@H]3CO)cccc12` [Compound 17], the Ki [3] is listed as 1.2 nM, the Ki [4] is listed as 10.1 nM and the Ki [5] is listed as 238 µM.
For `CN(C)c1cccc2c(S(=O)(=O)NCCCCCC[C@H]3NC[C@@H](O)[C@@H](O)[C@H]3CO)cccc12` [Compound 22], the Ki [1] was > 1 mM and the Ki [2] was 0.003 µM.
With `CN(C)c1cccc2c(S(=O)(=O)NCCCCCCN[C@H]3C[C@@H](O)[C@@H](O)[C@H]3CO)cccc12` [Compound 31, (1R,2S,3R,4S)-3-Hydroxymethyl-4-(6′-dansylaminohexylamino)cyclopentane-1,2-diol] the Ki [1] was > 1 mM and the Ki [2] was 22.6 µM.
Work on `CN(C)c1cccc2c(S(=O)(=O)NCCCCCCN[C@H]3[C@H](F)[C@@H](O)[C@@H](O)[C@H]3CO)cccc12` [Compound 37, (1S,2S,3S,4R,5R)-4-(6′-Dansylaminohexyl)amino-3-fluoro-5-hydroxymethylcyclopentane-1,2-diol] yielded a Ki [1] of 0.0225 mM and a Ki [2] of 3 µM.

Reference: paper PMC7504770, “Mechanistic Insights into the Chaperoning of Human Lysosomal-Galactosidase Activity: Highly Functionalized Aminocyclopentanes and C-5a-Substituted Derivatives of 4-epi-Isofagomine” (Molecules, 2020)
